pIC50: −log10 of the molar value.
Target: human PD-L1 / Human PD-1 (Homo sapiens (Human), UniProt Q9NZQ7)
Assay: Enzyme-Linked Immunosorbent Assay (ELISA), PD-1/PD-L1 binding
Settings: plate-coated human PD-L1, biotinylated human PD-1, absorbance 450 nm
Description: 96 Well plates were coated with 1 μg/mL of human PD-L1 (obtained from R&D) in PBS overnight at 4° C. The wells were then blocked with 2% BSA in PBS (W/V) with 0.05% TWEEN-20 for 1 hour at 37° C. The plates were washed 3 times with PBS/0.05% TWEEN-20 and the compounds were serial diluted (1:5) in dilution medium and added to the ELISA plates. Human PD-1 and biotin 0.3 μg/mL (ACRO Biosystems) were added and incubated for 1 hour at 37° C. then washed 3 times with PBS/0.05% TWEEN-20. A second block was performed with 2% BSA in PBS (W/V)/0.05% TWEEN-20 for 10 min at 37° C. and was washed 3 times with PBS/0.05% TWEEN-20. Streptavidin-HRP was added for 1 hour at 37° C. then washed 3 times with PBS/0.05% TWEEN-20. TMB substrate was added and reacted for 20 min at 37° C. A stop solution (2 N aqueous H2SO4) was added. The absorbance was read at 450 nm using a micro-plate spectrophotometer.
Compounds in Table 1 were prepared by methods as described in the Examples and evaluated according to the assay above. The IC50 of the compounds are presented in Table 1 as follows: • +, 20000 nM≥IC50≥500 nM; • ++, 500 nM≥IC50≥100 nM; • +++, 100 nM>IC50.

Chain of human PD-L1 / Human PD-1 (Q9NZQ7 19-239): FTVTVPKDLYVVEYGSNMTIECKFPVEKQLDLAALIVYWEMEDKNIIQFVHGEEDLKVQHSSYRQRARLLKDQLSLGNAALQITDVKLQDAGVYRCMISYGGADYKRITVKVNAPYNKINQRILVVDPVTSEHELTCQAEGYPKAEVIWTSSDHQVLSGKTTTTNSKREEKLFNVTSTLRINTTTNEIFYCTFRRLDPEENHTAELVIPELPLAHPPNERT

A pIC50 of over 7.00 was found for Cc1c(COc2cc3c(cc2Cl)CN[C@H](C(=O)O)CCCCNC(=O)c2cncc(c2)CO3)cccc1-c1cccc(OCCCN2CC(O)C2)c1C [Compound 1.020] in this work.
A pIC50 of over 7.00 was found for Cc1c(COc2cc3c(cc2Cl)CN[C@H](C(=O)O)CCCCNC(=O)c2cncc(c2)CO3)cccc1-c1ccc2c(c1)OCCO2 [Compound 1.002] in this work.
A pIC50 of 6.30 to 7.00 was found for O=C1NCCCC[C@@H](C(=O)O)NCc2cc(Cl)c(O[C@H]3CCc4c(-c5ccccc5F)cccc43)cc2OCc2cncc1c2 [Compound 1.007] in this work.
A pIC50 of over 7.00 was found for Cc1c(COc2cc3c(cc2Cl)CN[C@H](C(=O)O)CCCCNC(=O)c2cc(C#N)cc(c2)CO3)cccc1-c1cccc(OCCCN2CCC(F)CC2)c1C [Compound 1.021] in this work.
A pIC50 of 4.70 to 6.30 was found for Cc1c(COc2cc3c(cc2Cl)CN[C@H](C(=O)O)CCNC(=O)c2cncc(c2)CO3)cccc1-c1ccccc1 [Compound 1.009] in this work.
A pIC50 of 6.30 to 7.00 was found for Cc1c(COc2cc3c(cc2Cl)CN[C@@H](CO)C(=O)NCCNC(=O)c2cncc(c2)CO3)cccc1-c1ccccc1 [Compound 1.006] in this work.
A pIC50 of over 7.00 was found for Cc1c(COc2cc3c(cc2Cl)CN[C@H](C(=O)O)CCCCNC(=O)c2cncc(c2)CO3)cccc1-c1cccc(OCCCN2CCC(O)CC2)c1C [Compound 1.004] in this work.
A pIC50 of 6.30 to 7.00 was found for Cc1c(COc2cc3c(cc2Cl)CN[C@H](C(=O)O)CCCCNC(=O)CCCCO3)cccc1-c1ccccc1 [Compound 1.012] in this work.
A pIC50 of 6.30 to 7.00 was found for Cc1c(COc2cc3c(cc2Cl)CN[C@H](CC(=O)O)CCCCNC(=O)c2cncc(c2)CO3)cccc1-c1ccccc1 [Compound 1.011] in this work.
A pIC50 of 4.70 to 6.30 was found for Cc1c(COc2cc3c(cc2Cl)CN[C@H](C(=O)O)CCCCNC(=O)c2cncc-3c2)cccc1-c1ccccc1 [Compound 1.013] in this work.
A pIC50 of over 7.00 was found for Cc1c(COc2cc3c(cc2Cl)CNC(CO)CCCCNC(=O)c2cncc(c2)CO3)cccc1-c1cccc(OCCCN2CC[C@@H](O)C2)c1C (single isomer, unassigned) [Compound 1.024] in this work.
A pIC50 of over 7.00 was found for Cc1c(COc2cc3c(cc2Cl)CN[C@H](C(=O)O)CCCCNC(=O)c2cncc(c2)CO3)cccc1-c1ccccc1 [Compound 1.016] in this work.
A pIC50 of 6.30 to 7.00 was found for Cc1c(COc2cc3c(cc2Cl)CN[C@H](C(=O)O)CCCNC(=O)c2cncc(c2)CO3)cccc1-c1ccccc1 [Compound 1.010] in this work.
A pIC50 of over 7.00 was found for O=C1NCCCC[C@@H](C(=O)O)NCc2cc(Cl)c(O[C@H]3CCc4c(-c5ccc6c(c5F)OCCO6)cccc43)cc2OCc2cncc1c2 [Compound 1.014] in this work.
A pIC50 of over 7.00 was found for Cc1c(COc2cc3c(cc2Cl)CN[C@H](CO)CCCCNC(=O)c2cncc(c2)CO3)cccc1-c1cccc(OCCCN2CCC(F)CC2)c1C [Compound 1.025] in this work.
A pIC50 of over 7.00 was found for COc1cccc(-c2cccc(COc3cc4c(cc3Cl)CN[C@H](C(=O)O)CCCCNC(=O)c3cncc(c3)CO4)c2C)c1F [Compound 1.001] in this work.
A pIC50 of over 7.00 was found for Cc1c(COc2cc3c(cc2Cl)CN[C@H](C(=O)O)CCCCNC(=O)c2cncc(c2)CO3)cccc1-c1ccccc1F [Compound 1.003] in this work.
A pIC50 of 4.70 to 6.30 was found for Cc1c(COc2cc3c(cc2Cl)CN[C@H](C(=O)O)CCCCNC(=O)c2cncc(c2)CO3)cccc1-c1cccc(OCCCCl)c1C [Compound 1.005] in this work.
A pIC50 of 6.30 to 7.00 was found for Cc1c(COc2cc3c(cc2Cl)CN[C@H](C(=O)O)COCCNC(=O)c2cncc(c2)CO3)cccc1-c1ccccc1 [Compound 1.008] in this work.

Reference: patent US10392405B2, “Macrocyclic immunomodulators” (CHEMOCENTRYX, INC., priority 2017, dated 2019)
